Measurements reported in US8158792B2, “Spiropiperidines for use as tryptase inhibitors” (Janssen Pharmaceutica N.V., priority 2007, dated 2012).

Biological target: human lung tryptase
Assay: β-Tryptase In-Vitro Enzyme Assay
Type: biochemical
Details: human lung tryptase 1 nM, substrate H-D-HHT-Ala-Arg-pNa 500 μM, pH 7.4, room temperature
Method: The β-tryptase assay was conducted with human lung tryptase (Cortex Biochem #CP3033) in an aqueous buffer (10 mM Tris, 10 mM Hepes, 150 mM NaCl, 0.1% PEG 8000, pH 7.4) using the chromogenic substrate H-D-HHT-Ala-Arg-pNa. […] Percent inhibition was calculated by comparing the initial reaction velocity of samples without inhibitor to those with inhibitor. The initial reaction velocities were analyzed using Microsoft Excel.

Row | Compound | IC50 [nM]
1 | O=C(NCc1ccc2c(c1)C1(CCNCC1)CO2)c1ccc(Cl)c(Cl)c1 [Cpd 2, 5′-(3,4-dichlorophenylcarbonylaminomethyl)-spiro[piperidine-4,3′-(2H)-benzo[b]furan]] | 1400
2 | COc1ccc(-c2c(C(=O)N3CCC4(CC3)COc3ccc(CN)cc34)sc(SC)c2C#N)cc1 [Cpd 201, 1-[3-(4-methoxy-phenyl)-4-cyano-5-methylthio-thien-2-yl]carbonyl-5′-aminomethyl-spiro[piperidine-4,3′-(2H)-benzo[b]furan]] | 45
3 | NCc1ccc2c(c1)C1(CCN(C(=O)c3ccc(C#Cc4ccccc4)o3)CC1)CN2S(=O)(=O)c1ccc(C(=O)O)cc1 [Cpd 324, 1-(5-phenylethynyl-furan-2-yl)carbonyl-1′-(4-carboxy-phenyl)sulfonyl-5′-aminomethyl-spiro[piperidine-4,3′-(2H)-indole]] | 200
4 | NCc1ccc2c(c1)C1(CCN(C(=O)c3cc4c(s3)CCCCC4)CC1)CO2 [Cpd 257, 1-(5,6,7,8-tetrahydro-4H-cyclohepta[b]thien-2-yl)carbonyl-5′-aminomethyl-spiro[piperidine-4,3′-(2H)-benzo[b]furan]] | 440
5 | NCc1ccc2c(c1)C1(CCN(C(=O)C3c4ccccc4-c4ccccc43)CC1)CO2 [Cpd 289, 1-fluoren-9-ylcarbonyl-5′-aminomethyl-spiro[piperidine-4,3′-(2H)-benzo[b]furan]] | 1400
6 | NCc1ccc2c(c1)C1(CCN(C(=O)c3cc(-c4ccccc4)c(C(F)(F)F)s3)CC1)CO2 [Cpd 295, 1-(4-phenyl-5-trifluoromethyl-thien-2-yl)carbonyl-5′-aminomethyl-spiro[piperidine-4,3′-(2H)-benzo[b]furan]] | 42
7 | NCc1ccc2c(c1)C1(CCN(C(=O)CCc3cccc(I)c3)CC1)CO2 [Cpd 97, 1-(3-iodo-phenethyl)carbonyl-5′-aminomethyl-spiro[piperidine-4,3′-(2H)-benzo[b]furan]] | 1500
8 | Cc1ccc(-c2nc(C)c(C(=O)N3CCC4(CC3)COc3ccc(CN)cc34)s2)cc1 [Cpd 125, 1-[2-(4-methyl-phenyl)-4-methyl-thiazol-5-yl]carbonyl-5′-aminomethyl-spiro[piperidine-4,3′-(2H)-benzo[b]furan]] | 7500
9 | CSc1sc(C(=O)N2CCC3(CC2)COc2ccc(CN)cc23)c2ccccc12 [Cpd 234, 1-(3-methylthio-benzo[c]thien-1-yl)carbonyl-5′-aminomethyl-spiro[piperidine-4,3′-(2H)-benzo[b]furan]] | 9.5
10 | NCc1ccc2c(c1)C1(CCN(C(=O)c3ccc(Br)s3)CC1)CO2 [Cpd 198, 1-(5-bromo-thien-2-yl)carbonyl-5′-aminomethyl-spiro[piperidine-4,3′-(2H)-benzo[b]furan]] | 73
11 | NCc1ccc2c(c1)C1(CCN(C(=O)c3cccc(-c4ccc5c(c4)OCO5)c3)CC1)CO2 [Cpd 20, 1-(3-benzodioxol-5-yl-phenyl)carbonyl-5′-aminomethyl-spiro[piperidine-4,3′-(2H)-benzo[b]furan]] | 140
12 | N#C/C(=C\c1ccccc1)C(=O)N1CCC2(CC1)COc1ccc(CN)cc12 [Cpd 248, (E)-1-(1-cyano-2-phenylethenyl)carbonyl-5′-aminomethyl-spiro[piperidine-4,3′-(2H)-benzo[b]furan]] | 330
13 | NCc1ccc2c(c1)C1(CCN(C(=O)/C=C/c3ccc(F)c(F)c3)CC1)CO2 [Cpd 111, (E)-1-(3,4-difluoro-phenylethenyl)carbonyl-5′-aminomethyl-spiro[piperidine-4,3′-(2H)-benzo[b]furan]] | 190
14 | Cc1ccc(C(=O)N2CCC3(CC2)COc2ccc(CN)cc23)cc1C [Cpd 24, 1-(3,4-dimethyl-phenyl)carbonyl-5′-aminomethyl-spiro[piperidine-4,3′-(2H)-benzo[b]furan]] | 150
15 | NCc1ccc2c(c1)C1(CCN(C(=O)c3cccc(I)c3)CC1)CO2 [Cpd 48, 1-(3-iodo-phenyl)carbonyl-5′-aminomethyl-spiro[piperidine-4,3′-(2H)-benzo[b]furan]] | 16
